Results from US20250228239A1, “MOLECULES HAVING PESTICIDAL UTILITY, AND INTERMEDIATES, COMPOSITIONS, AND PROCESSES, RELATED THERETO” (priority 2024, published 2025).
Like-named read-outs stand apart in the source and are kept apart here.

Columns and labels:
Assay type in all cases: in vivo
[1] = tested on: Beet Armyworm (Spodoptera exigua, LAPHEG); experiment: Bioassays on Beet Armyworm (BAW), 128-well diet tray assay; conditions: Spodoptera exigua
How it was run: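 Larvae at second instar are exposed on dried, compound-treated diet (50 μg/cm^2, delivered in 90:10 acetone-water) in eight replicate wells. After five to seven days at 25° C., 14:10 light-dark, percent mortality in each well is scored and the eight wells averaged.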

[2] = tested on: Yellow Fever Mosquito (Aedes aegypti, AEDSAE); conditions: for YFM rating: Table ABC / ABC-DP rating
Experimental: Certain molecules disclosed in this document were tested against YFM using procedures described in the following paragraph. In the reporting of the results, the “GPA & YFM Rating Table” was used (See Table Section).
Master plates containing 400 μg of a molecule dissolved in 100 μL of dimethyl sulfoxide (DMSO) (equivalent to a 4000 ppm solution) are used. A master plate of assembled molecules contains 15 μL per well. To this plate, 135 μL of a 90:10 water/acetone mixture is added to each well. A robot (Biomek® NXP Laboratory Automation Workstation) is programmed to dispense 15 μL aspirations from the master plate into an empty 96-well shallow plate (“daughter” plate). There are 6 reps (“daughter” plates) created per master. The created “daughter” plates are then immediately infested with YFM larvae.
The day before plates are to be treated, mosquito eggs are placed in Millipore water containing liver powder to begin hatching (4 g into 400 mL). After the “daughter” plates are created using the robot, they are infested with 220 μL of the liver powder/larval mosquito mixture (about 1 day-old larvae). After plates are infested with mosquito larvae, a non-evaporative lid is used to cover the plate to reduce drying. Plates are held at room temperature for 3 days prior to grading. After 3 days, each well is observed and scored based on mortality. The results are indicated in the table entitled “Table ABC: Biological Results” (See Table Section).

[3] = tested on: Cabbage Looper (Trichoplusia ni, TRIPNI); experiment: Bioassays on Cabbage Looper (CL), 128-well diet tray assay; conditions: Trichoplusia ni
How it was run: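 Diet tray, 2nd instar, 1–5 larvae/well; 50 μg/cm^2 compound surface-applied (acetone:water 90:10), dried; 8 wells/treatment; 25° C, 14:10 L:D, 5–7 d; % mortality, mean of 8 wells.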

[4] = Table ABC: Biological Results, species BAW, read-out: BAW
[5] = Table ABC: Biological Results, species YFM
[6] = Table ABC: Biological Results, species CL, read-out: CL
[7] = Beet Armyworm, Table ABC / ABC-DP rating, read-out: BAW rating
[8] = Cabbage Looper, Table ABC / ABC-DP rating, read-out: CL rating
[9] = Beet Armyworm, rating class, read-out: BAW
[10] = Yellow Fever Mosquito, rating class
[11] = Cabbage Looper, rating class, read-out: CL

Structure (SMILES)	pest or weed control at 50 µg/cm2 [1, 4]	YFM [2, 5]	pest or weed control at 50 µg/cm2 [3, 6]	pest or weed control at 50 µg/cm2 [1, 7]	YFM rating ([2]; Yellow Fever Mosquito)	pest or weed control at 50 µg/cm2 [3, 8]	further results
C=C(F)c1ccc(NC(=O)c2cc(NC(=O)[C@H]3[C@H](c4cc(Cl)cc(Cl)c4)C3(Cl)Cl)ccc2Cl)c(F)c1 (relative stereo) [F1320, trans-2-Chloro-5-(2,2-dichloro-3-(3,5-dichlorophenyl)cyclopropane-1-carboxamido)-N-(2-fluoro-4-(1-fluorovinyl)phenyl)benzamide]	50 to 100%	A (80–100)	50 to 100%				
O=C(Nc1ccc(F)c(NC(=O)C(F)(F)F)c1F)c1cc(NC(=O)[C@H]2[C@H](c3ccc(F)c(C(F)(F)F)c3)C2(Cl)Cl)ccc1Cl [F1169, 2-chloro-5-((1R,3R)-2,2-dichloro-3-(4-fluoro-3-(trifluoromethyl)phenyl)cyclopropane-1-carboxamido)-N-(2,4-difluoro-3-(2,2,2-trifluoroacetamido)phenyl)benzamide]	50 to 100%	A (80–100)	50 to 100%				
O=C(Nc1ccc(F)cc1F)c1cc(NC(=O)[C@H]2[C@H](c3cc(F)c(Cl)c(C(F)(F)F)c3)C2(Cl)Cl)ccc1Cl (relative stereo) [F1163, trans-2-Chloro-5-(2,2-dichloro-3-(4-chloro-3-fluoro-5-(trifluoromethyl)phenyl)cyclopropane-1-carboxamido)-N-(2,4-difluorophenyl)benzamide]	50 to 100%	A (80–100)	50 to 100%				
C#CCN(C(=O)CC#N)c1c(F)ccc(NC(=O)c2cc(NC(=O)[C@H]3[C@H](c4ccc(F)c(C(F)(F)F)c4)C3(Cl)Cl)ccc2Cl)c1F [F1810, 2-Chloro-N-(3-(2-cyano-N-(prop-2-yn-1-yl)acetamido)-2,4-difluorophenyl)-5-((1R,3R)-2,2-dichloro-3-(4-fluoro-3-(trifluoromethyl)phenyl)cyclopropane-1-carboxamido)benzamide]				50 to 100%	A (80–100)	50 to 100%	
O=C(CCC(F)(F)C(F)(F)F)Nc1c(F)ccc(NC(=O)c2cc(NC(=O)[C@H]3[C@H](c4ccc(F)c(C(F)(F)F)c4)C3(Cl)Cl)ccc2Cl)c1F [F1844, 2-Chloro-5-((1R,3R)-2,2-dichloro-3-(4-fluoro-3-(trifluoromethyl)phenyl)cyclopropane-1-carboxamido)-N-(2,4-difluoro-3-(4,4,5,5,5-pentafluoropentanamido)phenyl)benzamide]				50 to 100%	A (80–100)	50 to 100%	
O=C(NCCNC(=O)C(F)(F)C(F)(F)F)c1cc(NC(=O)[C@H]2[C@H](c3cc(Cl)cc(Cl)c3)C2(Cl)Cl)ccc1Cl (relative stereo) [F2096, trans-2-Chloro-5-(2,2-dichloro-3-(3,5-dichlorophenyl)cyclopropane-1-carboxamido)-N-(2-(2,2,3,3,3-pentafluoropropanamido)ethyl)benzamide]				50 to 100%	B (More than 0 – Less than 80)	50 to 100%	
Cc1cc(NCc2ccc(C#N)cc2)ccc1NC(=O)c1cc(NC(=O)[C@H]2[C@H](c3cc(Cl)cc(Cl)c3)C2(Cl)Cl)ccc1Cl (relative stereo) [F1040, trans-2-Chloro-N-(4-((4-cyanobenzyl)amino)-2-methylphenyl)-5-(2,2-dichloro-3-(3,5-dichlorophenyl)cyclopropane-1-carboxamido)benzamide]	50 to 100%	A (80–100)	50 to 100%				
C#CCC(=O)N(CC)c1c(F)ccc(NC(=O)c2cc(NC(=O)[C@H]3[C@H](c4ccc(F)c(C(F)(F)F)c4)C3(Cl)Cl)ccc2Cl)c1F [F1763]							pest or weed control at 50 µg/cm2 [1, 9]: 50 to 100%; YFM [2, 10]: A (80–100); pest or weed control at 50 µg/cm2 [3, 11]: 50 to 100%
O=C(Nc1c(F)ccc(NC(=O)c2cc(NC(=O)[C@H]3[C@H](c4ccc(Cl)c(Cl)c4)C3(Cl)Cl)ccc2Cl)c1F)c1ccccc1 [F1253, N-(3-Benzamido-2,4-difluorophenyl)-2-chloro-5-((1R,3R)-2,2-dichloro-3-(3,4-dichlorophenyl)cyclopropane-1-carboxamido)benzamide]	50 to 100%	A (80–100)	50 to 100%				
Cc1c(F)cc(NC(=O)[C@H]2[C@H](c3ccc(F)c(Cl)c3)C2(Cl)Cl)cc1C(=O)Nc1ccc(F)cc1F (relative stereo) [F1279, trans-5-(2,2-Dichloro-3-(3-chloro-4-fluorophenyl)cyclopropane-1-carboxamido)-N-(2,4-difluorophenyl)-3-fluoro-2-methylbenzamide]	50 to 100%	B (More than 0 – Less than 80)	50 to 100%				
COCCNc1ccc(NC(=O)c2cc(NC(=O)[C@H]3[C@H](c4cc(Cl)cc(Cl)c4)C3(Cl)Cl)ccc2Cl)c(C)c1 (relative stereo) [F1162, trans-2-Chloro-5-(2,2-dichloro-3-(3,5-dichlorophenyl)cyclopropane-1-carboxamido)-N-(4-((2-methoxyethyl)amino)-2-methylphenyl)benzamide]	50 to 100%	A (80–100)	50 to 100%				
Cc1cc([C@H]2[C@H](C(=O)Nc3ccc(Cl)c(C(=O)NCC(F)(F)F)c3)C2(Cl)Cl)cc(C(F)(F)F)c1F (relative stereo) [F2014, trans-2-Chloro-5-(2,2-dichloro-3-(4-fluoro-3-methyl-5-(trifluoromethyl)phenyl)-cyclopropane-1-carboxamido)-N-(2,2,2-trifluoroethyl)benzamide]				50 to 100%	A (80–100)	50 to 100%	
O=C(Nc1ccc(F)c(NC(=O)C(F)F)c1F)c1cc(NC(=O)[C@H]2[C@H](c3cc(Cl)cc(Br)c3)C2(Cl)Cl)ccc1Cl (relative stereo) [F1618, trans-5-(3-(3-Bromo-5-chlorophenyl)-2,2-dichlorocyclopropane-1-carboxamido)-2-chloro-N-(3-(2,2-difluoroacetamido)-2,4-difluorophenyl)benzamide]							pest or weed control at 50 µg/cm2 [1, 9]: 50 to 100%; YFM [2, 10]: A (80–100); pest or weed control at 50 µg/cm2 [3, 11]: 50 to 100%
CCCC(=O)Nc1c(F)ccc(NC(=O)c2cc(NC(=O)[C@H]3[C@H](c4ccc(F)c(C(F)(F)F)c4)C3(Cl)Cl)ccc2Cl)c1F [F1385, N-(3-Butyramido-2,4-difluorophenyl)-2-chloro-5-((1R,3R)-2,2-dichloro-3-(4-fluoro-3-(trifluoromethyl)phenyl)cyclopropane-1-carboxamido)benzamide]	50 to 100%	A (80–100)	50 to 100%				
O=C(Nc1ccc(F)c(NC(=O)C2CC(F)(F)C2(F)F)c1F)c1cc(NC(=O)[C@H]2[C@H](c3ccc(F)c(C(F)(F)F)c3)C2(Cl)Cl)ccc1Cl (stereo partly drawn) [F1481, 2-Chloro-5-((1R,3R)-2,2-dichloro-3-(4-fluoro-3-(trifluoromethyl)phenyl)cyclopropane-1-carboxamido)-N-(2,4-difluoro-3-(2,2,3,3-tetrafluorocyclobutane-1-carboxamido)phenyl)benzamide]							pest or weed control at 50 µg/cm2 [1, 9]: 50 to 100%; YFM [2, 10]: A (80–100); pest or weed control at 50 µg/cm2 [3, 11]: 50 to 100%
COc1c(F)cc(NC(=O)[C@H]2[C@H](c3ccc(F)c(Cl)c3)C2(Cl)Cl)cc1C(=O)NCC(F)(F)C(F)(F)F (relative stereo) [F2060, trans-5-(2,2-Dichloro-3-(3-chloro-4-fluorophenyl)cyclopropane-1-carboxamido)-3-fluoro-2-methoxy-N-(2,2,3,3,3-pentafluoropropyl)benzamide]				50 to 100%	A (80–100)	50 to 100%	
O=C(NCC(F)(F)F)c1cc(NC(=O)[C@H]2[C@@H](c3cc(F)c(F)c(Br)c3)C2(Cl)Cl)ccc1Cl (relative stereo) [F2004, cis-5-(3-(3-Bromo-4,5-difluorophenyl)-2,2-dichlorocyclopropane-1-carboxamido)-2-chloro-N-(2,2,2-trifluoroethyl)benzamide]				50 to 100%	A (80–100)	50 to 100%	
